Test results reported in patent US20260146060A1, “PHOSPHORAMIDITE CONJUGATES AND METHODS OF FORMING SYNTHETIC OLIGONUCLEOTIDES THEREFROM” (CARNEGIE MELLON UNIVERSITY, priority 2022, published 2026).

Columns and labels:
[1] = Stability assay in 10% FBS (gel electrophoresis of remaining DNA); details: 37° C., 5.3 μM; for time until entirely degraded: 10% FBS and 1X PBS
Beta* = assay: Hybridization with complementary DNA, native gel electrophoresis; type: binding; details: stoichiometric complementary DNA, temperature annealing, for Beta-SBiB2 the complementary strand is not stated
From the text: (§1) Hybridization-driven self-assembly has made DNA a versatile building material for nanoscience. The sequence control over SBiB incorporation in DNA can expand the availability of DNA-initiators as new precursors for the fabrication of hybrid nanomaterials. Towards such an end, the hybridization of a mixed oligonucleotide sequence containing an internal SBiB initiator residue in the middle (Beta-SBiB1) was studied with a stoichiometric amount of complementary DNA followed by temperature annealing. For hybridization experiments, two different complementary strands to Beta-SBiB1 were used: one which was fully complementary to the Beta sequence (Beta*) and another that was fully complementary to the Beta sequence with the additional inclusion of a mismatched T residue opposite the SBiB location within the Beta sequence (Beta*Tmm). Beta*Tmm was used to evaluate if the single T residue opposite the 3 carbons insert of SBiB could reduce the strain during duplex formation.
(§2) Double-stranded DNA preparation and melting curve analysis. Desired single-stranded DNA (Beta or Beta-SBiB) was mixed with a stoichiometric amount of complementary DNA (Beta* or Beta*Tmm) at a final concentration of 20 μM in 1×PBS. The DNA mixture was placed in a heat block at 95° C. for 5 min. Following the heating process, the heat block was turned off and slowly cooled to room temperature (approx. 0.5° C./min). […]

Beta*Tmm = assay: Hybridization with complementary DNA carrying a mismatched T, native gel electrophoresis; type: binding; details: stoichiometric complementary DNA, temperature annealing
From the text: as §1, §2

## unmodified Beta DNA: purchased 21-mer DNA, ACGTCGAGCAGTCAGAGCTGT (DNA ACGTCGAGCAGTCAGAGCTGT; unmodified DNA)
[1]; in the absence of free pOEOMA
  time until entirely degraded: ≤ 12 h
[1]; in the presence of free pOEOMA in the supernatant
  time until entirely degraded: ≤ 12 h

## Beta-SBiB1: ACG TCG AGC AGT /i/ CAG AGC TGT, i = SBiB residue
Beta*
  hybridization (duplex formation): successfully hybridize
Beta*Tmm
  hybridization (duplex formation): successfully hybridize

## Beta-SBiB3: /i/ ACG TCG AGC AGT /i/ CAG AGC TG /i/ T
[1]; 10% FBS, after 24 hours
  degradation: 46%
